# The source made the active and inactive calls. For most assays here, no stated cut-off is given here; in the data, actives have a measured EC50 and inactives only a lower limit.
# What was measured:
# [1] = Luminescence Cell-Based Dose Retest to Confirm Inhibitors of Cancer Stem Cells. [Related pubchem assays (depositor defined):AID2717, AID2721]; format: functional; conditions: Homo sapiens
# INS1 = test: INS-1E survival protection against cytokine death – cell-based, luminescence, retest, dose response (AID 449756); format: functional; conditions: Rattus norvegicus;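 further: cell death triggered by IL-1 beta plus TNF-alpha plus IFN-gamma mixture; protective hits raise ATP signal compared with cytokine alone wells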
# [2] = biological target: T1, Replicative DNA helicase DnaB (Mycobacterium tuberculosis, UniProt P9WMR3); test: DnaB intein splicing inhibitors, dose response, biochemical, cell-free fluorescence (AID 449749); format: functional
# T1 sequence (P9WMR3 whole entry): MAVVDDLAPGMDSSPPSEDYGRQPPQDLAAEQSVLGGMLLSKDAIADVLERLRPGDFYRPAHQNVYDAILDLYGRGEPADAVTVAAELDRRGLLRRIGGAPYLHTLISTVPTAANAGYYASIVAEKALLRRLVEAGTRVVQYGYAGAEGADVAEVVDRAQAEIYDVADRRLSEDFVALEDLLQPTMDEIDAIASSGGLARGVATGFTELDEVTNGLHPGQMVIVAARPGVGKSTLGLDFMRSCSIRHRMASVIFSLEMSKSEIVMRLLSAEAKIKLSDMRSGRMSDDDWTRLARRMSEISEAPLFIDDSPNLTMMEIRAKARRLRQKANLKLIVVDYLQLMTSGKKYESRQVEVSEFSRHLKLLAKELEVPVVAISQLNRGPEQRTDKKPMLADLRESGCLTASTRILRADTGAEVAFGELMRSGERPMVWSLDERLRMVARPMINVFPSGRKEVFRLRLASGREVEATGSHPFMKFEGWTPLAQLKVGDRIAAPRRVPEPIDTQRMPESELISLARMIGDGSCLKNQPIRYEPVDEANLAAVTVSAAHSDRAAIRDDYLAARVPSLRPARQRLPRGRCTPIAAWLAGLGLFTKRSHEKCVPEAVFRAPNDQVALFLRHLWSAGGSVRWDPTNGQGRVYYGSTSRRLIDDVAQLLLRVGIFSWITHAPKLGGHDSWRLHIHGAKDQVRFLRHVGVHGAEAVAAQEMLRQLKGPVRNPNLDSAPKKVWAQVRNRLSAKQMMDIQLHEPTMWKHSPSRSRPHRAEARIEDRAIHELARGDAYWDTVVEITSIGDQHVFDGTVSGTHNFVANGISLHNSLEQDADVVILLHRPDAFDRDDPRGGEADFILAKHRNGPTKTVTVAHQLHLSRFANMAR
# Protein RecA = biological target: T2, Protein RecA (Mycobacterium tuberculosis, UniProt P9WHJ3); test: Fluorescence Cell-Free Homogeneous Dose Retest to Identify Inhibitors of RecA-Intein Splicing Activity. [Related pubchem assays (depositor defined):AID2097, AID2223, AID489010, AID492950]; format: functional
# T2 sequence (P9WHJ3 whole entry): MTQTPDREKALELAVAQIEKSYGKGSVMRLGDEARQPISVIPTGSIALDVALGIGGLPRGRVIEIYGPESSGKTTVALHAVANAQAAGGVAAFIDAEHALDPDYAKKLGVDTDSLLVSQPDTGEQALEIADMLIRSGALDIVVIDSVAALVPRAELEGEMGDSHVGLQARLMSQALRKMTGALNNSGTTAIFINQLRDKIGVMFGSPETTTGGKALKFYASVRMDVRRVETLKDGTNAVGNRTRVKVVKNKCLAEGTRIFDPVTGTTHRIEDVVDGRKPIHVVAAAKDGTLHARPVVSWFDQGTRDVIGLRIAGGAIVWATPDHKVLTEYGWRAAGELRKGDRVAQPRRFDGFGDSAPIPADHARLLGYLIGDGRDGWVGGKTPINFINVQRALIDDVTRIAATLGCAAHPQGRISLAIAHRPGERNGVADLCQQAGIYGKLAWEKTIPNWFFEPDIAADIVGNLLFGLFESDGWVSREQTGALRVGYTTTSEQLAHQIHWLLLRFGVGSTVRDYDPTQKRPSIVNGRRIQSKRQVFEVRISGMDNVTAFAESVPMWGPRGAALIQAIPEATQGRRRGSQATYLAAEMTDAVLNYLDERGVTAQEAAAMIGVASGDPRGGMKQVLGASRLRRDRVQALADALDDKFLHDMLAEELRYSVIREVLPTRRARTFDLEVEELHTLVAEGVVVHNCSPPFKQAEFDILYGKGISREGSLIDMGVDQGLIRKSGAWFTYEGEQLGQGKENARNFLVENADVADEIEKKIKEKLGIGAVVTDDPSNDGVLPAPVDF
# [3] = microbe, parasite or virus in culture; format: functional; conditions: Mycobacterium tuberculosis
# [4] = biological target: T3, Calpain-2 catalytic subunit (Sus scrofa, UniProt P43367); test: m-calpain protease blockers, concentration series – biochemical, fluorogenic peptide substrate, dose response (AID 1420); format: functional
# T3 sequence (P43367 whole entry): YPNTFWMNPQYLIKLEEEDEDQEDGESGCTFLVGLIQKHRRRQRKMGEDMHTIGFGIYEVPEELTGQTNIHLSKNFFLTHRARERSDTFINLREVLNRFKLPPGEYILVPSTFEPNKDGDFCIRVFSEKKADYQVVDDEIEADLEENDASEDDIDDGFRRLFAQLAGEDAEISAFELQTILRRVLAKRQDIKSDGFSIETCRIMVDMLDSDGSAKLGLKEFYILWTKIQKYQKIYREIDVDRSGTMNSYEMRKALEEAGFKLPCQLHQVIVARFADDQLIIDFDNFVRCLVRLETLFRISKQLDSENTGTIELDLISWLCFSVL
# [5] = biological target: T4, Heat shock factor protein 1 (Mus musculus, UniProt P38532); test: decrease of HSF1-responsive luciferase luminescence – cell-based, NIH3T3, dose retest, confirmation (AID 2382); format: functional;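 further: NIH3T3 fibroblasts with HSF1-driven luciferase reporter stressed by proteasome inhibitor MG132; luminescence from HSF1-driven luciferase expression after 8 hours of MG132 stress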
# T4 sequence (P38532 whole entry): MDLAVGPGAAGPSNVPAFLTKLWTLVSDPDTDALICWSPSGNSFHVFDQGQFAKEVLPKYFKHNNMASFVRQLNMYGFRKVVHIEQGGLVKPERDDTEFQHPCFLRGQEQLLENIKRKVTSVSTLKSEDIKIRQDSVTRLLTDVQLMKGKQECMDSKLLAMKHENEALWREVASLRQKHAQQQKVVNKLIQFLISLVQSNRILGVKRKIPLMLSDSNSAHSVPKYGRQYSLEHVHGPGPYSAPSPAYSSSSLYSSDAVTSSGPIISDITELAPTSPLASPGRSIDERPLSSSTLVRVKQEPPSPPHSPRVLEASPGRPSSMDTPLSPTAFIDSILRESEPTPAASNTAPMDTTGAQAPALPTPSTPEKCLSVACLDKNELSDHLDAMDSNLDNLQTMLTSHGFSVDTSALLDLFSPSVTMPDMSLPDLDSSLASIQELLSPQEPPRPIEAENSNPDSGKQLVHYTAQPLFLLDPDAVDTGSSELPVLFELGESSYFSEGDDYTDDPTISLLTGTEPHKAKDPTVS
# Cytochrome P450 3A4 = Cytochrome P450 3A4 (Homo sapiens, UniProt P08684);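 further: CYP3A4 tested as one member of a cytochrome P450 panel screen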
# Sequence of Cytochrome P450 3A4 (P08684 whole entry): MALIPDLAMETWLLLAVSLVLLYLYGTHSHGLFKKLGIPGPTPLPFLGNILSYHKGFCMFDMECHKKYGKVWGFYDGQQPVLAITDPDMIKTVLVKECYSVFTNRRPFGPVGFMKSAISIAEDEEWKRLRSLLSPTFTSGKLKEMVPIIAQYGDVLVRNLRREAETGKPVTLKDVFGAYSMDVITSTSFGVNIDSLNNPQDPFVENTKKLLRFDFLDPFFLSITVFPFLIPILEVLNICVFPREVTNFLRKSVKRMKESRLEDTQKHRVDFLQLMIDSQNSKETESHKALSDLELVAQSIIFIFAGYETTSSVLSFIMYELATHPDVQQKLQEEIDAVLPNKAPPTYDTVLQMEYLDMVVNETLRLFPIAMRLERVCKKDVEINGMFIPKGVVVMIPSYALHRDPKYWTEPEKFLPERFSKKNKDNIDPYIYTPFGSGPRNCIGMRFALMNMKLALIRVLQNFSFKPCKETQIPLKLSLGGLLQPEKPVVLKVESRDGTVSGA
# Cytochrome P450 1A2 = biological target: T5, Cytochrome P450 1A2 (Homo sapiens, UniProt P05177);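 further: PubChem cytochrome P450 panel assay, CYP1A2 panel member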
# T5 sequence (P05177 whole entry): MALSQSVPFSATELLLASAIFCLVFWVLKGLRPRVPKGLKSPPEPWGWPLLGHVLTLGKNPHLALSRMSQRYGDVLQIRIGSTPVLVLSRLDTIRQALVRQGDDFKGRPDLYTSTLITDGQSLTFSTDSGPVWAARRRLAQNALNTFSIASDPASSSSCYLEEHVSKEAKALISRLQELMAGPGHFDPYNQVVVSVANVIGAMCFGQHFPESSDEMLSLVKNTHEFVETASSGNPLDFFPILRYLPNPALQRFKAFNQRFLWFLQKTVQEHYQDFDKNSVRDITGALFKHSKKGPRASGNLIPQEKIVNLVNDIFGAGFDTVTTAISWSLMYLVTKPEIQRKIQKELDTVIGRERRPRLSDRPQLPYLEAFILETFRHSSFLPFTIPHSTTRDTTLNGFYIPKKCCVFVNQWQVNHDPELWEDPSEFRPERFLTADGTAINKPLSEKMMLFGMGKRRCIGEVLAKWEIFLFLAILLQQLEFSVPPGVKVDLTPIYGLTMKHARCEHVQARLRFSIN
# [6] = luciferase reporter signal suppression in cells – H4 neuroglioma cells, luminescence, dose response (AID 1990); format: functional, cell-based
# [7] = alpha-synuclein stem-loop luciferase translation blockers – H4 neuroglioma cells, luminescence, confirmation (AID 1988); format: functional, cell-based
# BJ [8] = test: BJ-TERT fibroblast viability loss – cell-based, RAS-independent, luminescence, dose response (AID 1933); format: functional; conditions: Homo sapiens
# BJ [9] = test: cells; format: functional, cell-based; conditions: Homo sapiens
# BJ [10] = test: BJ-TERT-LT-ST fibroblast viability loss – cell-based, RAS-independent, luminescence, dose response (AID 1935); format: functional; conditions: Homo sapiens;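 further: BJ fibroblasts immortalized with TERT plus LT and ST oncogenes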
# [11] = DRD fibroblast viability loss – cell-based, non-viral oncogenic, luminescence, dose response (AID 1934); format: functional; conditions: Homo sapiens
# [12] = biological target: T4, Heat shock factor protein 1; test: enhancement of HSF1-driven luciferase signal – cell-based, NIH3T3, luminescence, dose retest, confirmation (AID 435004); format: functional;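 further: stress induced by proteasome inhibitor MG132 added 30 min after compound; luciferase reporter driven by HSF1 response element in NIH3T3 cells; actives raise luminescence as potentiators of the MG132 stress response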
# cells = format: functional
compound,measurement,setting,value
Oc1ccc(Nc2nc(-c3ccc4ccccc4c3)cs2)cc1,AC50,[1],5.31 µM (active)
same,AC50,INS1,16.6 µM (active)
same,AC50,[2],67.6 µM (active)
same,EC50,Protein RecA,7.3 µM (active)
same,CC50,[3],17.1 µM (active)
Cc1cccc(NC(=O)c2cc3c(=O)n4ccccc4nc3n(CC(C)C)c2=N)c1,IC50,[4],> 50 µM (not active)
CCOC(=O)Cn1c(=O)cc(C)c2cccc(C)c21,IC50,[4],< 0.4 µM (not active)
CC1(C)C=C(c2ccc(C=O)s2)CC(C)(C)N1C=O,EC50,[5],> 195 µM (not active)
CCOC(=O)c1c(C)[nH]c(C2=NN=C(Nc3cccc(Cl)c3)SC2)c1C,EC50,[5],25.3 µM (active)
Cc1ccc(NS(=O)(=O)c2cc(C(=O)NCCSC3CCCCC3)ccc2C)cc1,IC50,[4],> 50 µM (not active)
S=C(c1ccc(N2CCCC2)cc1)N1CCCCC1,IC50,[4],12.1 µM (active)
CC(C)CC(=O)NC(NC(=O)CC(C)C)c1cccc([N+](=O)[O-])c1,EC50,[5],> 195 µM (not active)
C#CCSc1nnc(-c2sc3ccccc3c2Cl)o1,IC50,[4],> 50 µM (not active)
same,AC50,Cytochrome P450 3A4,8.91 µM (inconclusive)
same,AC50,Cytochrome P450 1A2,0.126 µM (inconclusive)
CCCc1n[nH]c2c1C(c1ccc(O)cc1OCC)C(C#N)=C(N)O2 (configuration not stated),AC50,[2],40.3 µM (active)
same,EC50,Protein RecA,4.6 µM (active)
CC(C)(C)OC(=O)C1C(=O)CC(C)(O)C(C(=O)OC(C)(C)C)C1c1cccnc1 (configuration not stated),EC50,[5],> 195 µM (not active)
CN(Cc1ccc(Cl)cc1)C(=O)CCl,AC50,[2],21.8 µM (active)
same,EC50,Protein RecA,2.61 µM (active)
O=c1ccc2ccc(Oc3ccc(Cl)cc3[N+](=O)[O-])cc2o1,IC50,[4],< 0.4 µM (not active)
CC(O)c1nc2ccccc2n1Cc1nnc(-c2ccc(Cl)cc2)o1 (configuration not stated),EC50,[5],> 195 µM (not active)
Fc1ccc(Cc2nnc(-c3cccs3)o2)cc1,EC50,[5],> 195 µM (not active)
Cc1cccc(NC(=O)CSc2nnc(CNC(=O)c3cccs3)o2)c1C,IC50,[4],7.44 µM (not active)
O=C(NCCc1ccccn1)c1ccc(OC(F)F)cc1,IC50,[4],< 0.4 µM (not active)
COc1ccc(CCNC(=O)CC2(CC3=NS(=O)(=O)c4ccccc4N3)CCCC2)cc1OC,EC50,[6],18.8 µM (active)
same,EC50,[7],> 120 µM (not active)
CCOc1ccc(NC(=O)CN(C)C(=O)c2ccc(N3CCCC3)c([N+](=O)[O-])c2)cc1OCC,EC50,[5],> 195 µM (not active)
COc1ccc(-c2noc(N3CCC(C(=O)NCCCN4CC(C)CC(C)C4)CC3)n2)cc1 (configuration not stated),EC50,[5],> 195 µM (not active)
S=C(Nc1ccccc1Oc1ccccc1)Nc1cccc(Cl)c1Cl,IC50,[4],12.7 µM (not active)
COC(=O)c1c(C)oc2ccc(N(C(=O)c3ccncc3)S(=O)(=O)c3ccc(C)cc3C)cc12,AC50,INS1,3.85 µM (active)
same,AC50,[2],2.27 µM (active)
same,EC50,Protein RecA,10.9 µM (active)
CC(=O)Oc1cc2c(cc1Cl)C1(CC(c3ccccc3Cl)O2)CC(C)(C)N=C(S)N1 (configuration not stated),AC50,[2],4.22 µM (active)
same,EC50,Protein RecA,14.1 µM (active)
COC(=O)Nc1sccc1C(=O)Nc1sccc1C(=O)OC,EC50,[5],> 195 µM (not active)
CC(=C/C(=O)O)/C(=C/c1ccccc1)C(=O)O,IC50,[4],< 0.4 µM (not active)
CC(=O)N1CC2(c3ccccc3)CN(C(C)=O)CC(c3ccccc3)(C1)C2=O,AC50,[2],> 380 µM (inactive)
same,EC50,Protein RecA,> 380 µM (inactive)
COC(=O)/C(=C\Nc1ccc(Cl)cc1Cl)NC(=O)c1ccc(OC)cc1,EC50,BJ [8],10 µM (inconclusive)
same,EC50,BJ [9],57.7 µM (active)
same,EC50,BJ [10],15.3 µM (inconclusive)
same,EC50,[11],4.31 µM (active)
Cc1c(C(=O)N/N=C/c2ccccc2)[nH]c2c([N+](=O)[O-])cccc12,EC50,BJ [8],0.776 µM (active)
same,EC50,BJ [9],73.1 µM (inconclusive)
same,EC50,BJ [10],0.708 µM (inconclusive)
same,EC50,[11],27.1 µM (inconclusive)
C/C(CC(=O)Nc1cc(C)ccn1)=N\NC(=O)c1cccc(F)c1,AC50,[2],18.7 µM (active)
same,EC50,Protein RecA,8.06 µM (active)
COc1ccc(N/N=C(\C#N)C(=N)SCc2ccccc2)cc1,AC50,[2],3.6 µM (active)
same,EC50,Protein RecA,8.67 µM (active)
Cc1[nH]n(-c2ccccc2)c(=O)c1N=Nc1ccc2c(c1)OCO2,EC50,[5],> 195 µM (not active)
CSC(=N/c1cc(Cl)ccc1Cl)/C(C#N)=C(/O)c1ccco1,EC50,[12],11.2 µM (active)
same,IC50,cells,7.46 µM (active)
same,AC50,[2],2.51 µM (active)
same,EC50,Protein RecA,0.912 µM (active)
same,CC50,[3],37.1 µM (active)
